In article PMC4193892, “3-O-Galloylated Procyanidins from Rumex acetosa L. Inhibit the Attachment of Influenza A Virus” (PLoS ONE, 2014):
Like-named read-outs stand apart in the source and are kept apart here.

What was measured:
[1] = tested on: IAV(H1N1)pdm09 isolate I1; assay: microbe, parasite or virus in culture; format: cell-based, influenza A virus; conditions: for inhibition at 2 µM / inhibition at 20 µM / inhibition at 200 µM: H1N1, 48 h, read-out: anti-IAV activity
[2] = in vitro
[3] = tested on: MDCK II cells; assay: cells; conditions: Canis lupus familiaris, 48 h, read-out: cell vitality
[4] = tested on: recombinant IAV laboratory strain A/Puerto Rico/8/34-NS116-GFP; conditions: cited from earlier work
[5] = tested on: IAV(H1N1)pdm09; parameters: method as in PMID 24498245; conditions: preincubation of particles for 2 h with 50 µg/mL (265 µM); A549 cells; cited from earlier work
[6] = biological target: IAV neuraminidase; conditions: cited from earlier work
[7] = tested on: IAV(H1N1)pdm09 I1; format: cell-based, influenza A virus
[8] = tested on: chicken erythrocytes; assay: Direct agglutination of erythrocytes in the absence of IAV; format: cell-based; conditions: minimal concentration
Method: Twofold serial dilutions (25 µL) of test compounds in PBS and 4 hemagglutinating units (HU) of IAV (25 µl) were mixed carefully in 96-well plates with U-shaped bottom (Thermo Fisher Scientific Nunc, Schwerte, Germany). Plates were shaken for 5 min. and incubated for 25 min. at room temperature (RT). 50 µL of a 1.5% suspension of newborn chicken erythrocytes (RBC) in PBS (Labor Dr. Merk & Kollegen, Ochsenhausen, Germany) were added, and plates shaken again. Assays were read following a 2 h incubation period at RT, and the minimum inhibitory concentration (MIC), defined as the highest test compound dilution showing complete inhibition of the agglutination of erythrocytes, was determined. In every assay, a test compound control (compound plus RBC without addition of IAV), and erythrocyte controls (A: IAV plus RBC, without addition of test compound; B: RBC, without addition of test compound or IAV) were included.

Oc1cc(O)c2c(c1)O[C@H](c1ccc(O)c(O)c1)[C@H](O)[C@H]2c1c(O)cc(O)c2c1O[C@H](c1ccc(O)c(O)c1)[C@H](O)[C@H]2c1c(O)cc(O)c2c1O[C@H](c1ccc(O)c(O)c1)[C@H](O)[C@H]2c1c(O)cc(O)c2c1O[C@H](c1ccc(O)c(O)c1)[C@H](O)C2 [compound 11, epicatechin-(4β→8)-epicatechin-(4β→8)-epicatechin-(4β→8)-epicatechin]
IC50 ([1]; Influenza A virus, H1N1): ≤ 225 µM
inhibition at 2 µM ([1]; Influenza A virus): 0%
inhibition at 20 µM ([1]; Influenza A virus): 1%
inhibition at 200 µM ([1]; Influenza A virus): 44 ± 7%
CC50 at 48 h ([2]; dog): > 200 µM
viability at 2 µM [3]: 101 ± 6%
viability at 20 µM [3]: 86 ± 8%
viability at 200 µM [3]: 54 ± 9%

Oc1cc(O)c2c(c1)O[C@H](c1ccc(O)c(O)c1)[C@H](O)[C@H]2c1c(O)cc2c(c1O)C[C@@H](O)[C@@H](c1ccc(O)c(O)c1)O2 [compound 9, epicatechin-(4β→6)-epicatechin]
IC50 ([1]; Influenza A virus, H1N1): ≤ 163 µM
inhibition at 2 µM ([1]; Influenza A virus): 0%
inhibition at 20 µM ([1]; Influenza A virus): 0%
inhibition at 200 µM ([1]; Influenza A virus): 63 ± 4%
CC50 at 48 h ([2]; dog): > 200 µM
viability at 2 µM [3]: 100 ± 3%
viability at 20 µM [3]: 84 ± 4%
viability at 200 µM [3]: 57 ± 4%

Oc1cc(O)c2c(c1)O[C@H](c1cc(O)c(O)c(O)c1)[C@H](O)C2 [compound 4, epigallocatechin]
IC50 ([1]; Influenza A virus, H1N1): > 200 µM
inhibition at 2 µM ([1]; Influenza A virus): 0%
inhibition at 20 µM ([1]; Influenza A virus): 0%
inhibition at 200 µM ([1]; Influenza A virus): 26 ± 22%
CC50 at 48 h [2]: > 200 µM
viability at 2 µM [3]: 101 ± 4%
viability at 20 µM [3]: 106 ± 1%
viability at 200 µM [3]: 86 ± 17%

O=C1O[C@H]2[C@@H]3OC(=O)c4cc(O)c(O)c(O)c4-c4c(cc(O)c(O)c4O)C(=O)OC[C@H]2O[C@@H](OC(=O)c2cc(O)c(O)c(O)c2)[C@@H]3OC(=O)c2cc(O)c(O)c3c2[C@@H]2C1=CC(=O)[C@](O)(O3)C2(O)O [compound 13, geraniin, reference compound]
IC50 ([1]; Influenza A virus, H1N1): ≤ 388 µM
inhibition at 2 µM ([1]; Influenza A virus): 0%
inhibition at 20 µM ([1]; Influenza A virus): 1 ± 1%
inhibition at 200 µM ([1]; Influenza A virus): 25%
CC50 at 48 h ([2]; dog): 162 µM
viability at 2 µM [3]: 99 ± 1%
viability at 20 µM [3]: 107 ± 2%
viability at 200 µM [3]: 35 ± 3%

O=C(OC[C@H]1O[C@@H](OC(=O)c2cc(O)c(O)c(O)c2)[C@H](OC(=O)c2cc(O)c(O)c(O)c2)[C@@H](OC(=O)c2cc(O)c(O)c(O)c2)[C@@H]1OC(=O)c1cc(O)c(O)c(O)c1)c1cc(O)c(O)c(O)c1 [compound 12, 1,2,3,4,6-penta-O-galloyl-β-D-glucose, reference compound]
IC50 [1]: ≤ 22 µM
IC50 ([1]; Influenza A virus, H1N1): 22 µM
inhibition at 2 µM ([1]; Influenza A virus): 3 ± 3%
inhibition at 20 µM ([1]; Influenza A virus): 46 ± 9%
inhibition at 200 µM ([1]; Influenza A virus): 35 ± 1%
CC50 at 48 h [2]: 83 µM
viability at 2 µM [3]: 91 ± 7%
viability at 20 µM [3]: 57 ± 14%
viability at 200 µM [3]: 37 ± 3%

Oc1cc(O)c2c(c1)O[C@H](c1cc(O)c(O)c(O)c1)[C@@H](O)C2 [compound 3, gallocatechin]
IC50 ([1]; Influenza A virus, H1N1): ≤ 156 µM
inhibition at 2 µM ([1]; Influenza A virus): 0%
inhibition at 20 µM ([1]; Influenza A virus): 0%
inhibition at 200 µM ([1]; Influenza A virus): 66 ± 5%
CC50 at 48 h [2]: > 200 µM
viability at 2 µM [3]: 106 ± 5%
viability at 20 µM [3]: 108 ± 1%
viability at 200 µM [3]: 75 ± 17%

O=C(O)c1cc(O)c(O)c(O)c1 [compound 17, gallic acid monohydrate, reference compound]
EC50 [4]: ~50 µM
IC50 ([1]; Influenza A virus, H1N1): > 200 µM
inhibition at 2 µM ([1]; Influenza A virus): 0%
inhibition at 20 µM ([1]; Influenza A virus): -1%
inhibition at 200 µM ([1]; Influenza A virus): 14 ± 11%
effect on virus replication [5]: only little effect
CC50 at 48 h [2]: 197 µM
IC50 [6]: > 500 µM
viability at 2 µM [3]: 106 ± 5%
viability at 20 µM [3]: 107 ± 8%
viability at 200 µM [3]: 49 ± 18%

O=c1oc2c(O)c(O)cc3c(=O)oc4c(O)c(O)cc1c4c23 [compound 15, ellagic acid, reference compound]
IC50 ([1]; Influenza A virus, H1N1): > 200 µM
inhibition at 2 µM ([1]; Influenza A virus): 0%
inhibition at 20 µM ([1]; Influenza A virus): 1 ± 1%
inhibition at 200 µM ([1]; Influenza A virus): 4 ± 1%
CC50 at 48 h [2]: > 200 µM
viability at 2 µM [3]: 106 ± 1%
viability at 20 µM [3]: 110 ± 3%
viability at 200 µM [3]: 108 ± 2%

O=C(O[C@@H]1Cc2c(O)cc(O)cc2O[C@@H]1c1cc(O)c(O)c(O)c1)c1cc(O)c(O)c(O)c1 [compound 6, reference compound]
MIC [7]: no inhibitory effect
direct agglutination [8]: 156 µM
IC50 ([1]; Influenza A virus, H1N1): ≤ 12 µM
inhibition at 2 µM ([1]; Influenza A virus): 1 ± 1%
inhibition at 20 µM ([1]; Influenza A virus): 87 ± 25%
inhibition at 200 µM ([1]; Influenza A virus): 60 ± 7%
CC50 at 48 h ([2]; dog): > 200 µM
viability at 2 µM [3]: 103 ± 4%
viability at 20 µM [3]: 92 ± 7%
viability at 200 µM [3]: 62 ± 9%

O=C(/C=C/c1ccc(O)c(O)c1)O[C@H](Cc1ccc(O)c(O)c1)C(=O)O [compound 16, rosmarinic acid, reference compound]
IC50 ([1]; Influenza A virus, H1N1): > 200 µM
inhibition at 2 µM ([1]; Influenza A virus): 0%
inhibition at 20 µM ([1]; Influenza A virus): 0%
inhibition at 200 µM ([1]; Influenza A virus): 1 ± 1%
CC50 at 48 h [2]: > 200 µM
viability at 2 µM [3]: 102 ± 1%
viability at 20 µM [3]: 103 ± 1%
viability at 200 µM [3]: 102 ± 1%

Oc1cc(O)c2c(c1)O[C@H](c1ccc(O)c(O)c1)[C@H](O)[C@H]2c1c(O)cc(O)c2c1O[C@H](c1ccc(O)c(O)c1)[C@H](O)[C@H]2c1c(O)cc(O)c2c1O[C@H](c1ccc(O)c(O)c1)[C@H](O)C2 [compound 10, epicatechin-(4β→8)-epicatechin-(4β→8)-epicatechin]
IC50 ([1]; Influenza A virus, H1N1): 123 µM
inhibition at 2 µM ([1]; Influenza A virus): 0%
inhibition at 20 µM ([1]; Influenza A virus): 0%
inhibition at 200 µM ([1]; Influenza A virus): 87 ± 5%
CC50 at 48 h ([2]; dog): > 200 µM
viability at 2 µM [3]: 104 ± 2%
viability at 20 µM [3]: 99 ± 4%
viability at 200 µM [3]: 122 ± 6%

O=C(O[C@@H]1O[C@@H]2COC(=O)c3cc(O)c(O)c(O)c3-c3c(cc(O)c(O)c3O)C(=O)O[C@H]([C@H]1O)[C@@H]2O)c1cc(O)c(O)c(O)c1 [compound 14, corilagin, reference compound]
IC50 [1]: uncalc. ^3
inhibition at 2 µM ([1]; Influenza A virus): 0%
inhibition at 20 µM ([1]; Influenza A virus): 1%
inhibition at 200 µM ([1]; Influenza A virus): 3 ± 2%
CC50 at 48 h ([2]; dog): 120 µM
viability at 2 µM [3]: 101 ± 1%
viability at 20 µM [3]: 103 ± 1%
viability at 200 µM [3]: 8 ± 1%

Oc1cc(O)c2c(c1)O[C@H](c1ccc(O)c(O)c1)[C@@H](O)C2 [compound 1, (+)-catechin monohydrate]
IC50 ([1]; Influenza A virus, H1N1): > 200 µM
inhibition at 2 µM ([1]; Influenza A virus): 0%
inhibition at 20 µM ([1]; Influenza A virus): 0%
inhibition at 200 µM ([1]; Influenza A virus): 0%
CC50 at 48 h [2]: > 200 µM
viability at 2 µM [3]: 105 ± 3%
viability at 20 µM [3]: 102 ± 5%
viability at 200 µM [3]: 119 ± 9%

Oc1cc(O)c2c(c1)O[C@H](c1ccc(O)c(O)c1)[C@H](O)[C@H]2c1c(O)cc(O)c2c1O[C@H](c1ccc(O)c(O)c1)[C@H](O)C2 [compound 7, epicatechin-(4β→8)-epicatechin]
IC50 ([1]; Influenza A virus, H1N1): > 200 µM
inhibition at 2 µM ([1]; Influenza A virus): 0%
inhibition at 20 µM ([1]; Influenza A virus): 0%
inhibition at 200 µM ([1]; Influenza A virus): 1 ± 1%
CC50 at 48 h ([2]; dog): > 200 µM
viability at 2 µM [3]: 107 ± 6%
viability at 20 µM [3]: 108 ± 9%
viability at 200 µM [3]: 117 ± 8%

Oc1cc(O)c2c(c1)O[C@H](c1ccc(O)c(O)c1)[C@H](O)C2 [compound 2, (−)-epicatechin]
IC50 ([1]; Influenza A virus, H1N1): > 200 µM
inhibition at 2 µM ([1]; Influenza A virus): 0%
inhibition at 20 µM ([1]; Influenza A virus): 0%
inhibition at 200 µM ([1]; Influenza A virus): 1 ± 1%
CC50 at 48 h [2]: > 200 µM
viability at 2 µM [3]: 101 ± 2%
viability at 20 µM [3]: 104 ± 4%
viability at 200 µM [3]: 124 ± 20%

Oc1cccc(O)c1O [compound 18, pyrogallol, reference compound]
IC50 ([1]; Influenza A virus, H1N1): ≤ 241 µM
inhibition at 2 µM ([1]; Influenza A virus): 0%
inhibition at 20 µM ([1]; Influenza A virus): 7 ± 3%
inhibition at 200 µM ([1]; Influenza A virus): 42 ± 1%
CC50 at 48 h ([2]; dog): 176 µM
viability at 2 µM [3]: 98 ± 4%
viability at 20 µM [3]: 96 ± 1%
viability at 200 µM [3]: 43 ± 1%

O=C(O[C@@H]1Cc2c(O)cc(O)cc2O[C@@H]1c1ccc(O)c(O)c1)c1cc(O)c(O)c(O)c1 [compound 5, epicatechin-3-O-gallate]
IC50 ([1]; Influenza A virus, H1N1): ≤ 258 µM
inhibition at 2 µM ([1]; Influenza A virus): 0%
inhibition at 20 µM ([1]; Influenza A virus): 1%
inhibition at 200 µM ([1]; Influenza A virus): 38 ± 2%
CC50 at 48 h [2]: 175 µM
viability at 2 µM [3]: 107 ± 3%
viability at 20 µM [3]: 106 ± 4%
viability at 200 µM [3]: 41 ± 2%
